# In ChEMBL document CHEMBL1201862, “PubChem BioAssay data set” (2004):
# The source made the active and inactive calls.
# What was measured:
# [1] = inhibitors of intracellular T. cruzi replication, confirmation, NIH3T3 host cells, beta-gal luminescence (AID 2044); format: functional, cell-based;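 further: intracellular parasites grown in NIH/3T3 mouse fibroblasts as host cells; luminescent beta-galactosidase reporter signal from transgenic T. cruzi replicating inside host cells; inhibitors lower the luminescence signal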
# [2] = cytotoxicity toward NIH3T3 fibroblasts, dose response, counter-screen, cell-based, ATP luminescence, mouse fibroblasts (AID 2010); format: functional;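 further: cells exposed to compound for about 90 hours before reading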
# [3] = target: T1, Heat shock factor protein 1 (Mus musculus, UniProt P38532); assay: HSF1 potentiators in luciferase reporter cells, confirmation, cell-based, NIH3T3, luminescence, dose retest (AID 435004); format: functional;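 further: stress induced by proteasome inhibitor MG132 added 30 min after compound; luciferase reporter driven by HSF1 response element in NIH3T3 cells; actives raise luminescence as potentiators of the MG132 stress response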
# T1 sequence (P38532 whole entry): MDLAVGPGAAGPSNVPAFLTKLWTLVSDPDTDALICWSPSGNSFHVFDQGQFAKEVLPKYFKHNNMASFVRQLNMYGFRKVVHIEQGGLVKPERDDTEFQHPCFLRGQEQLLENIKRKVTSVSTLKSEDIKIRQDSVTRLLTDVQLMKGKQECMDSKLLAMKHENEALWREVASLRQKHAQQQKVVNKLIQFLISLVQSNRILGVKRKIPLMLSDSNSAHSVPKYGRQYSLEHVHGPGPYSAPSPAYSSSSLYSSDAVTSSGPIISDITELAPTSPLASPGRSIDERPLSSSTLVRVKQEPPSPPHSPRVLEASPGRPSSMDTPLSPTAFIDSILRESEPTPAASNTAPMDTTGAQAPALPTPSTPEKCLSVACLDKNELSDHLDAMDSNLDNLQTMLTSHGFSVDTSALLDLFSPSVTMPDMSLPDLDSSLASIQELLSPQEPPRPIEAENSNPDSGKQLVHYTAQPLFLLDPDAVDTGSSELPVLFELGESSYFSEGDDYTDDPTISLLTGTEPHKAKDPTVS
# INS1 = assay: beta cell apoptosis inhibitors, cytokine rescue, dose response, luminescence, retest (AID 449756); format: functional, cell-based; details: Rattus norvegicus;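 further: cell death triggered by IL-1 beta plus TNF-alpha plus IFN-gamma mixture; protective hits raise ATP signal compared with cytokine alone wells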
# H9c2 = assay: cells; format: functional, cell-based; details: Rattus norvegicus, H9c2, Myocardium;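 further: confirmatory concentration-response retest of ultra-high-throughput screening hits for modulation of myocardial damage; cell death induced by hydrogen peroxide oxidative stress; compound pretreatment for 60 min then peroxide exposure for 2 h; potency is for protecting the cells against peroxide damage rather than for killing them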
# [4] = Luminescence Cell-Based Dose Confirmation HTS to Identify Activators of 5'UTR Stem-Loop Driven Alpha-Synuclein mRNA Translation in H4 Neuroglioblastoma Cells. [Related pubchem assays: 1829 (Project Summary), 1814 (Primary HTS)]; format: functional
# [5] = Luminescence Cell-Based Dose Response HTS to Identify Activators of Luciferase Translation or Activity in H4 […] Cells. [Related pubchem assays: 1829 (Project Summary), 1814 (Primary HTS)]; format: functional
# H4 = assay: Luminescence Cell-Based Dose Response HTS to Identify Activators of 5'UTR Stem-Loop Driven Prion Protein mRNA Translation in H4 Neuroglioblastoma Cells. [Related pubchem assays: 1829 (Project Summary), 1814 (Primary HTS)]; format: functional; details: Homo sapiens
# [6] = Luminescence Cell-Based Dose Retest to Confirm Inhibitors of Cancer Stem Cells. [Related pubchem assays (depositor defined):AID2717, AID2721]; format: functional; details: Homo sapiens
# Protein skinhead-1 = target: T2, Protein skinhead-1 (Caenorhabditis elegans, UniProt P34707); format: functional
# T2 sequence (P34707 whole entry): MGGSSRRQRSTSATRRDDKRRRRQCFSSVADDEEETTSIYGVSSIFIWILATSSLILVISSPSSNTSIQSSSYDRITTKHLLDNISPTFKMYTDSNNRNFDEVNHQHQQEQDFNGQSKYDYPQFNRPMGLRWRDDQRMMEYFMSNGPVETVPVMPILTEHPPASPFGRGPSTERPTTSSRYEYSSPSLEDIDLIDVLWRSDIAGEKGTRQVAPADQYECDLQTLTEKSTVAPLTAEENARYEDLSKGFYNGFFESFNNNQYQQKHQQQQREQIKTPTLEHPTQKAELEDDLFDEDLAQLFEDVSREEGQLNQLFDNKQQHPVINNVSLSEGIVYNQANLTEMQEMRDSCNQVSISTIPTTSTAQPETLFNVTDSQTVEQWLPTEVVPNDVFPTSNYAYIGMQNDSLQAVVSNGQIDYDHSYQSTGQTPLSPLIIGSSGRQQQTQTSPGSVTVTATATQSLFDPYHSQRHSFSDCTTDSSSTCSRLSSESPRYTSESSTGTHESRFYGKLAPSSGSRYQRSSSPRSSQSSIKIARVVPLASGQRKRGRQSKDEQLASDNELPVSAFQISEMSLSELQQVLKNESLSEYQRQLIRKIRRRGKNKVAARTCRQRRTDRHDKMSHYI
# [7] = HEp-2 cell cytotoxicity, dose response, cytotoxicity control for RSV inhibitor project, HTS (AID 2410); format: functional; details: human respiratory syncytial virus
# [8] = target: T3, Corticotropin-releasing factor receptor 2/Corticotropin-releasing factor-binding protein (Homo sapiens, UniProt P24387+Q13324); assay: activators of CRF receptor 2 with binding protein – uHTS hits, confirmation (AID 602473); format: functional; details: read-out: EC50_Mean
# T3 sequence (Q13324 whole entry): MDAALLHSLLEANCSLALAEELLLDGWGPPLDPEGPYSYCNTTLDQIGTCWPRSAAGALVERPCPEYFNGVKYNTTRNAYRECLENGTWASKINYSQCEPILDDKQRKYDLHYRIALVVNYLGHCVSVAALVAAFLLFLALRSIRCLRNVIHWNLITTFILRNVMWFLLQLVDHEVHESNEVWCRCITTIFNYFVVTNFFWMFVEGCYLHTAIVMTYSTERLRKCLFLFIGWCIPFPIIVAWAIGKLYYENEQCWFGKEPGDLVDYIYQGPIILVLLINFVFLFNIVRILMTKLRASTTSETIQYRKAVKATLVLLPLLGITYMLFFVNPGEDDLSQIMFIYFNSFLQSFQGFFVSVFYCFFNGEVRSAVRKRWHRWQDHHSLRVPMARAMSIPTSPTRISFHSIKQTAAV
# T3 sequence (P24387 whole entry): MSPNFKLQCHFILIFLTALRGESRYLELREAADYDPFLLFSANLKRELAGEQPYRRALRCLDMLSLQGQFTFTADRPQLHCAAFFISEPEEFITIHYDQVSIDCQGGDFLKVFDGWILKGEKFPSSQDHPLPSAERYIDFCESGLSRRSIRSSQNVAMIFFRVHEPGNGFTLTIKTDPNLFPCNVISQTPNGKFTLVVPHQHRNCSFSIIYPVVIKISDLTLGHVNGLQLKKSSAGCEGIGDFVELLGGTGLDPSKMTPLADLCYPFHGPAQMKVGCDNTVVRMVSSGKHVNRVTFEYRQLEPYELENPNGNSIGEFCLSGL
# [9] = target: T4, Rac GTPase-activating protein 1 (Homo sapiens, UniProt Q9H0H5); assay: MgcRacGAP GTPase-activating activity inhibitors, confirmation, biochemical, ADP Hunter fluorescence, primary and confirmatory (AID 624330); format: functional
# T4 sequence (Q9H0H5 whole entry): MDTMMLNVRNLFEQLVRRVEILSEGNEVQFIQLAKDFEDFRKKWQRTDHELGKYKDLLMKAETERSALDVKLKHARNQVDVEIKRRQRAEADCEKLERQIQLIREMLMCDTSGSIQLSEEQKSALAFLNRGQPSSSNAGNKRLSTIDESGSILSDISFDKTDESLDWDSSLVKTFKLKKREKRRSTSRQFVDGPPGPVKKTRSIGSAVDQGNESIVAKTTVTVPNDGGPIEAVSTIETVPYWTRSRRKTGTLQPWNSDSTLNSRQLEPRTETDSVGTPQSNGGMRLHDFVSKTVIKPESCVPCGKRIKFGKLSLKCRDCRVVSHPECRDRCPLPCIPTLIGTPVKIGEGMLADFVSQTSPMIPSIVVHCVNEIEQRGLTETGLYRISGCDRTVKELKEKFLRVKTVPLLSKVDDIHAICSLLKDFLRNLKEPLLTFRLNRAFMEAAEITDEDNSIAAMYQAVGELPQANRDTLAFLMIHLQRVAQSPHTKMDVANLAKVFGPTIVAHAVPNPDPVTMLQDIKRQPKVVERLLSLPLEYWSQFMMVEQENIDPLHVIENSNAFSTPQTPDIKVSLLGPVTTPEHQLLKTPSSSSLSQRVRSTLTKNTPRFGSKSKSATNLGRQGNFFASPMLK
# Paired box protein Pax-8 = Paired box protein Pax-8 (Homo sapiens, UniProt Q06710); assay: inhibitors of PAX8-driven TPO luciferase reporter, dose response, RMG-I cells, cherry-pick (AID 687027); format: functional, cell-based;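 further: luciferase reporter driven by Pax8 target thyroperoxidase promoter measured by SteadyGlo luminescence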
# Paired box protein Pax-8, sequence (Q06710 whole entry): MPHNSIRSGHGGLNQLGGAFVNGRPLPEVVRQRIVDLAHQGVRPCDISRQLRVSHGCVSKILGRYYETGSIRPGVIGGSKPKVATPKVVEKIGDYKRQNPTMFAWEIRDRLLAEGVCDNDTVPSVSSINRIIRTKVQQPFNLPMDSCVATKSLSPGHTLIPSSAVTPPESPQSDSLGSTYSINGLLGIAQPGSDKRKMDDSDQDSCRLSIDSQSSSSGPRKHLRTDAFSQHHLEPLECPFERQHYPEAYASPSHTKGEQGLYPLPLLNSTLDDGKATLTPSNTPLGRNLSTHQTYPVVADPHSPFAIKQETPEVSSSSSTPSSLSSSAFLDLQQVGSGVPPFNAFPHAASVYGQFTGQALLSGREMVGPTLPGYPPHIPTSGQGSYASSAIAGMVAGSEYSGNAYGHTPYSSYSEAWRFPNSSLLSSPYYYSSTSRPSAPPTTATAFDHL
# [10] = P. falciparum Dd2 growth inhibitors, dose response, SYBR Green, cherry-picked samples (AID 1159567); format: functional, cell-based
smiles,measurement,setting,value
Cc1[nH]c2ccccc2c1CN1CCN(c2ccccn2)CC1,EC50,[1],1.28 µM (active)
same,EC50,[2],> 60 µM (not active)
same,EC50,[3],84 µM (active)
same,AC50,INS1,4.21 µM (active)
Cc1ccc(-c2cn(S(=O)(=O)c3ccc(C)cc3)nc2N)cc1,EC50,[3],> 260 µM (inactive)
O=C(Cn1[nH]c(=O)c2ccccc2c1=O)OCC(=O)N1CCCc2ccccc21,IC50,H9c2,> 79 µM (inactive)
COc1ccc(-c2c(C)c3cc(O)ccc3oc2=O)cc1OC,EC50,[3],> 260 µM (inactive)
CC1=C(Sc2nc3ccccc3[nH]2)C(=O)NC(C)(C)C1,EC50,[3],> 260 µM (inactive)
O=C(NN=Cc1ccc(N2CCOCC2)s1)c1ccc([N+](=O)[O-])cc1,IC50,H9c2,13.1 µM (active)
CC1CN(c2nn3c(=O)c4ccccc4nc3c3ccccc23)CC(C)O1 (stereo not given),IC50,H9c2,> 79 µM (inactive)
CC(C)c1ccc2[nH]c3c(c2c1)[C@@H]1CCN2C(=O)CCC[C@H](C3)[C@H]12,EC50,[4],11.9 µM (active)
same,EC50,[5],53.6 µM (active)
same,EC50,H4,> 120 µM (not active)
O=C(c1ccccc1)c1ccc2nc(N3CCN(C(=O)c4ccco4)CC3)c3nncn3c2c1,IC50,H9c2,> 79 µM (inactive)
CC1(C)CC(=O)c2sc(NC(=O)C(C)(C)C)nc2C1,EC50,[4],16 µM (active)
same,EC50,[5],1.31 µM (active)
same,EC50,H4,18.5 µM (active)
O=C1NC(c2ccccc2)=N/C1=C/c1ccco1,EC50,[4],0.322 µM (active)
same,EC50,[5],55.5 µM (active)
same,EC50,H4,5.71 µM (active)
Cc1cc(C)nc(NC(=O)CSc2nc3ccccc3s2)n1,EC50,[4],4.91 µM (active)
same,EC50,[5],48.4 µM (active)
same,EC50,H4,15.1 µM (active)
CCOC(=O)C1(Cc2cccc(OC)c2)CCCN(C(=O)c2cc(C)[nH]n2)C1 (stereo not given),EC50,[4],12.5 µM (active)
same,EC50,[5],23.2 µM (active)
same,EC50,H4,> 120 µM (not active)
CCc1n[nH]c(SCc2ccc(OCC(C)C)cc2)n1,EC50,[4],22.6 µM (active)
same,EC50,[5],10.2 µM (active)
same,EC50,H4,> 120 µM (not active)
COc1cc2c(cc1OC)C(COc1ccc3c(C)cc(=O)oc3c1)N(C(=O)c1ccco1)CC2 (stereo not given),IC50,H9c2,> 79 µM (inactive)
CC(=O)c1ccc(NC(=O)CSc2nc(=O)cc(N)n2-c2ccccc2)cc1,EC50,[4],22.5 µM (active)
same,EC50,[5],12.3 µM (active)
same,EC50,H4,10.9 µM (active)
CC(C)(c1ccccc1)c1ccc(OCCCN2CCNCC2)cc1,EC50,[1],2.42 µM (active)
same,EC50,[2],15.1 µM (active)
same,AC50,[6],0.2 µM (active)
same,EC50,[3],60.7 µM (active)
CN(C)N(Cc1ccccc1)C(=O)C(O)(c1ccccc1)c1ccccc1,IC50,H9c2,> 79 µM (inactive)
Cc1oc2ccc(NS(=O)(=O)c3ccc(C(C)(C)C)cc3)cc2c1C(=O)Nc1ccccc1,EC50,[3],> 260 µM (inactive)
CC(C)(C)OC(=O)NCC12C=CC(O1)C1C(=O)N(Cc3ccccc3)C(=O)C12 (stereo not given),IC50,H9c2,> 79 µM (inactive)
same,IC50,Protein skinhead-1,> 100 µM (inactive)
COc1cc(C(=O)Sc2ccc(Cl)cc2)cc(OC)c1OC,CC50,[7],32.8 µM (active)
same,EC50,[3],1.49 µM (active)
Cc1ccc(O)c(NC(=O)c2onc(C)c2Cl)c1,EC50,[3],3.11 µM (active)
COc1cc(/C=C/C(=O)Nc2ccc3nc4n(c(=O)c3c2)CCCC4)cc(OC)c1OC,IC50,H9c2,> 79 µM (inactive)
O=S(=O)(c1cccc(F)c1)N1CCN(c2nc(-c3cccnc3)nc3ccccc23)CC1,IC50,H9c2,> 79 µM (inactive)
COc1ccc(-c2oc(=O)c3cc(OC)c(OC)cc3c2C#CCCO)cc1,IC50,H9c2,> 79 µM (inactive)
CCCCn1/c(=N/C(=O)c2cccnc2)c(C#N)cc2c(=O)n3cccc(C)c3nc21,IC50,H9c2,26.2 µM (active)
same,EC50,[8],> 53 µM (inactive)
Cc1cc(Br)cc(/C=N/c2ccc(N3CCOCC3)cc2)c1O,IC50,H9c2,19.7 µM (active)
same,IC50,[9],14.6 µM (active)
C[C@H]1CN([C@@H](C)CO)C(=O)Cc2cc(NC(=O)Nc3ccc(C(F)(F)F)cc3)ccc2O[C@H]1CN(C)C(=O)NC1CCCCC1,AC50,Paired box protein Pax-8,10.2 µM (active)
Cn1c(=O)n(/N=C/c2ccccc2)c2ccccc21,EC50,[4],17.3 µM (active)
same,EC50,[5],10.7 µM (active)
same,EC50,H4,31 µM (active)
N#Cc1ccc(-c2ccc([C@@H]3[C@@H]4CN(S(=O)(=O)Cc5ccccc5)C[C@H]3N4)cc2)cc1,AC50,[10],6.48 µM (active)
CN1CCCCN2[C@@H](CO)[C@@H](c3ccc(-c4cccnc4)cc3)[C@@H]2C1,AC50,[10],6.76 µM (active)
COc1ccc(NC(=O)Nc2ccc3c(c2)CC(=O)N([C@@H](C)CO)C[C@@H](C)[C@H](CN(C)CC2CCCCC2)O3)cc1,AC50,[10],4.85 µM (active)
CO[C@@H]1CN(C)C(=O)c2ccc(NC(=O)C3CCC3)cc2OC[C@@H](C)N(CC2CCCCC2)C[C@H]1C,AC50,[10],4.4 µM (active)
COc1ccc2c3c([nH]c2c1)[C@H](CO)N(Cc1ccccc1F)CC31CN(C(=O)C2CCCC2)C1,AC50,[10],9.56 µM (active)
